Source: patent US10702507B2, “Endoparasite control agent” (THE UNIVERSITY OF TOKYO, priority 2014, dated 2020)

Tested on: 1st-stage larvae of Haemonchus contortus
Assay: Test for effect on motion of larvae of Haemonchus nematode
Details: 20 larvae per well, 27° C./95% RH for 4 days, corrected against DMSO negative control, duplicate
Method: Test for Effect on Motion of Larvae of Haemonchus Nematode (Haemonchus contortus) The compound of the present invention was prepared as solutions in 100% DMSO at the final concentrations of 50 ppm, 5 ppm, 0.5 ppm, 0.05 ppm and 0.005 ppm. DMSO stands for dimethyl sulfoxide. A larval suspension containing 1st-stage larvae of Haemonchus contortus harvested by the Baermann technique (for example, see K. Nakazono et al., “Inclination of Baermann funnel wall and efficiency of nematode extraction” Proc. Assoc. Pl. Prot. Kyushu 33: 126-130 (1987)) was placed at a density of 20 larvae per well in a test plate, and 0.5 μL/well of the test solution containing the compound of the present invention diluted to a predetermined concentration was added to the test plate. The plate was kept under the conditions of 27° C./95% RH for 4 days. In the test, ivermectin was used for the positive control and DMSO was used for the negative control. The motor ability of the larvae was examined with an automatic analyzer equipped with an LCD camera. The inhibitory effect on the motion of the larvae in each treatment plot was corrected based on the inhibitory effect in the plot treated with DMSO only for the negative control. The EC50 value was calculated from the data on the corrected inhibitory effect on the motion of the larvae, and graded according to the criteria shown below. The test was conducted in duplicate per plot.

Structure (SMILES)	EC50 value of corrected inhibitory effect on the motion of the larvae, graded
CC(CNC(=O)c1ccccc1C(F)(F)F)c1ccc(Oc2ncc(C(F)(F)F)cc2Cl)cc1Cl (racemic) [Compound 1-41]	C or higher
CC(CNC(=O)c1ccccc1C(F)(F)F)c1ccc(Oc2ccc(C(F)(F)F)cn2)cc1Cl (racemic) [Compound 1-42]	C or higher
CC(CNC(=O)c1ccccc1C(F)(F)F)c1ccc(Oc2ncc(Cl)cc2Cl)cc1Cl (racemic) [Compound 1-43]	C or higher
CC(CNC(=O)c1ccccc1C(F)(F)F)c1ccc(-c2ccc(C(F)(F)F)cc2)cc1Cl (racemic) [Compound 1-57]	C or higher
CC(CNC(=O)c1ccccc1C(F)(F)F)c1ccc(-c2ccccc2)cc1Cl (racemic) [Compound 1-58]	C or higher
CC(CNC(=O)c1ccccc1C(F)(F)F)c1ccc(-c2ccncc2)cc1Cl (racemic) [Compound 1-59]	C or higher
COC(CNC(=O)c1ccccc1C(F)(F)F)c1ccc(Oc2ncc(C(F)(F)F)cc2Cl)cc1Cl (racemic) [Compound 1-60]	C or higher
COC(CNC(=O)c1ccccc1C(F)(F)F)c1ccc(Oc2ccc(C(F)(F)F)cn2)cc1Cl (racemic) [Compound 1-61]	C or higher
COC(CNC(=O)c1ccccc1C(F)(F)F)c1ccc(Oc2ncc(Cl)cc2Cl)cc1Cl (racemic) [Compound 1-62]	C or higher
O=C(NCCc1ccc(Oc2ncc(Cl)cc2Cl)cc1Cl)c1ccccc1C(F)(F)F [Compound 1-1]	C or higher
O=C(NCCc1ccc(Oc2ncc(Br)cc2Cl)cc1Cl)c1ccccc1C(F)(F)F [Compound 1-2]	C or higher
O=C(NCCc1ccc(Oc2nccnc2C(F)(F)F)cc1Cl)c1ccccc1C(F)(F)F [Compound 1-3]	C or higher
O=C(NCCc1ccc(Oc2nccnc2Cl)cc1Cl)c1ccccc1C(F)(F)F [Compound 1-4]	C or higher
O=C(NCCc1ccc(Oc2cnccn2)cc1Cl)c1ccccc1C(F)(F)F [Compound 1-5]	C or higher
COc1cc(OC)nc(Oc2ccc(CCNC(=O)c3ccccc3C(F)(F)F)c(Cl)c2)n1 [Compound 1-6]	C or higher
Cc1cc(C)nc(Oc2ccc(CCNC(=O)c3ccccc3C(F)(F)F)c(Cl)c2)n1 [Compound 1-7]	C or higher
O=C(NCCc1ccc(Oc2ccnc(Cl)n2)cc1Cl)c1ccccc1C(F)(F)F [Compound 1-8]	C or higher
O=C(NCCc1ccc(Oc2cc(Cl)nc(Cl)n2)cc1Cl)c1ccccc1C(F)(F)F [Compound 1-9]	C or higher
Cc1cc(Oc2ccc(CCNC(=O)c3ccccc3C(F)(F)F)c(Cl)c2)nc(Cl)n1 [Compound 1-10]	C or higher
Cc1cnc(Cl)nc1Oc1ccc(CCNC(=O)c2ccccc2C(F)(F)F)c(Cl)c1 [Compound 1-11]	C or higher
O=C(NCCc1ccc(Oc2ccc3ccccc3n2)cc1Cl)c1ccccc1C(F)(F)F [Compound 1-13]	C or higher
O=C(NCCc1ccc(Oc2cnc3ccccc3n2)cc1Cl)c1ccccc1C(F)(F)F [Compound 1-14]	C or higher
O=C(NCCc1ccc(Oc2nc3ccccc3s2)cc1Cl)c1ccccc1C(F)(F)F [Compound 1-15]	C or higher

Structure (SMILES)	EC50 value of corrected inhibitory effect on the motion of the larvae, graded
O=C(NCCc1ccc(Oc2nc3ccc(Cl)cc3s2)cc1Cl)c1ccccc1C(F)(F)F [Compound 1-16]	C or higher
O=C(NCCc1ccc(Oc2nc3ccccc3o2)cc1Cl)c1ccccc1C(F)(F)F [Compound 1-17]	C or higher
O=C(NCCc1ccc(Oc2ccccc2)cc1Cl)c1ccccc1C(F)(F)F [Compound 1-18]	C or higher
O=C(NCCc1ccc(Oc2ccc(C(F)(F)F)cc2)cc1Cl)c1ccccc1C(F)(F)F [Compound 1-19]	C or higher
O=C(NCCc1ccc(Oc2ncc(C(F)(F)F)cc2Cl)cc1Cl)c1ccccc1I [Compound 1-20]	C or higher
O=C(NCCc1ccc(Oc2ccc(C(F)(F)F)cn2)cc1Cl)c1ccccc1I [Compound 1-21]	C or higher
O=C(NCCc1ccc(Oc2ncc(Cl)cc2Cl)cc1Cl)c1ccccc1I [Compound 1-22]	C or higher
O=C(NCCc1ccc(Oc2ncc(Br)cc2Cl)cc1Cl)c1ccccc1I [Compound 1-23]	C or higher
O=C(NCCc1ccc(Oc2nccnc2C(F)(F)F)cc1Cl)c1ccccc1I [Compound 1-24]	C or higher
O=C(NCCc1ccc(Oc2nccnc2Cl)cc1Cl)c1ccccc1I [Compound 1-25]	C or higher
O=C(NCCc1ccc(Oc2cnccn2)cc1Cl)c1ccccc1I [Compound 1-26]	C or higher
COc1cc(OC)nc(Oc2ccc(CCNC(=O)c3ccccc3I)c(Cl)c2)n1 [Compound 1-27]	C or higher
Cc1cc(C)nc(Oc2ccc(CCNC(=O)c3ccccc3I)c(Cl)c2)n1 [Compound 1-28]	C or higher
O=C(NCCc1ccc(Oc2ccnc(Cl)n2)cc1Cl)c1ccccc1I [Compound 1-29]	C or higher
O=C(NCCc1ccc(Oc2cc(Cl)nc(Cl)n2)cc1Cl)c1ccccc1I [Compound 1-30]	C or higher
Cc1cc(Oc2ccc(CCNC(=O)c3ccccc3I)c(Cl)c2)nc(Cl)n1 [Compound 1-31]	C or higher
Cc1cnc(Cl)nc1Oc1ccc(CCNC(=O)c2ccccc2I)c(Cl)c1 [Compound 1-32]	C or higher
O=C(NCCc1ccc(Oc2ccc3ccccc3n2)cc1Cl)c1ccccc1I [Compound 1-34]	C or higher
O=C(NCCc1ccc(Oc2cnc3ccccc3n2)cc1Cl)c1ccccc1I [Compound 1-35]	C or higher
O=C(NCCc1ccc(Oc2nc3ccccc3s2)cc1Cl)c1ccccc1I [Compound 1-36]	C or higher
O=C(NCCc1ccc(Oc2nc3ccc(Cl)cc3s2)cc1Cl)c1ccccc1I [Compound 1-37]	C or higher
O=C(NCCc1ccc(Oc2nc3ccccc3o2)cc1Cl)c1ccccc1I [Compound 1-38]	C or higher
